In US20250108038A1 (priority 2023, published 2025):
“And” between values parts separate entries of the source, which are not always exact repeats. Identical values can stand only once.

Test system: Long Evans rats
Assay: Behavioral satiety sequence (BSS)
Assay type: in vivo, Long Evans rat
Excerpt: The Behavioural Satiety Sequence (BSS) is a technique used to evaluate physiological satiety. It is based on the expression of a sequence of behaviors including eating, grooming, locomotor activity, followed by resting, which are typically observed in rodents post-ingestion (Halford et al, 1998, Pharmacology Biochemistry and Behaviour. 61(2): 159-168). The BSS is a widely used model for determining the effects of novel pharmaceuticals on food intake and measures of satiety in rodents (Oliveira et al, 2011, Revista de Nutrição. 24(4) 619-628), and to discriminate the cause of reduced food intake following pharmacological manipulation. For example, treatments that may reduce food intake by non-specific mechanisms, such as immobility, malaise, and taste adulteration, will disrupt this sequence (Halford et al, 1998, Pharmacology Biochemistry and Behaviour. 61(2): 159-168).
Specifically, 12 male Long-Evans rats were food-deprived for 22 h with a 2 h feeding period each day. Rats were trained to consume daily food during the 2 h period over 25 days. The testing phase was initiated once the rats consistently consumed 16-18 g of food per day with ≤10% variance in amount of feed consumed. Feeding took place in designated individual boxes in a quiet room separate from the housing room. Continuous remote monitoring via video camera during feeding was used to assess the BSS. Food consumption was measured by weighing the total available food before and after the 2 h feeding window, correcting for spillage. Lorcaserin (1 mg/kg) was included as a reference control (Higgins et al, 2011, Neuropsychopharmacology. 37(5): 1177-1191). Subjects were tested using a repeated-measures, Latin square design with 2-3 days wash-out between treatment cycles.
On scheduled test days, animals were monitored remotely via video camera during the feeding access period. The occurrence of four mutually exclusive behaviors (eating/drinking, grooming, active, rest) were individually scored. Over the 2 h feeding period, behaviors were assessed every 30 seconds. Scores were compiled into 23 5 min timebins (timebin 24 was removed due to early removal of animals) and the frequency of each behavior within each timebin was calculated to determine a temporal frequency of each measure (Rodgers et al, 2010, Pharmacology Biochemistry and Behaviour. 97: 3-14). Percentage time was plotted for each behavioral sequence in each timebin to compare between treatment groups (Higgins et al, 2011, Neuropsychopharmacology. 37(5): 1177-1191).

[1] = Compound I-19 1 mg/kg, AVG of 12 animals
[2] = Compound I-19 1 mg/kg, raw score of individual animals LT-1 to LT-12
[3] = Compound I-19 3 mg/kg i.p., AVG of the group
[4] = Compound I-19 3 mg/kg i.p., raw score per animal

## Clc1ccc(C2(OCC3OCCO3)c3ccccc3C3=NCCN32)cc1 (stereo not drawn) [Compound I-19]
[1]
  BSS scoring R (resting), Time Bin 13 (60-65 TOTAL), AVG: 0.13
  BSS scoring R (resting), Time Bin 14 (65-70 TOTAL), AVG: 0.10
  BSS scoring R (resting), Time Bin 15 (70-75 TOTAL), AVG: 0.13
  BSS scoring R (resting), Time Bin 16 (75-80 TOTAL), AVG: 0.18
  BSS scoring R (resting), Time Bin 17 (80-85 TOTAL), AVG: 0.14
  BSS scoring R (resting), Time Bin 18 (85-90 TOTAL), AVG: 0.30
[2]
  BSS scoring A (active), Time Bin 13 (60-65 TOTAL): 2 and 1 (3×) and 0 (6×) and 3 (2×)
  BSS scoring A (active), Time Bin 14 (65-70 TOTAL): 0 (4×) and 1 (4×) and 2 and 3 (2×) and 4
  BSS scoring A (active), Time Bin 15 (70-75 TOTAL): 0 (4×) and 2 (4×) and 1 (2×) and 5 (2×)
  BSS scoring A (active), Time Bin 16 (75-80 TOTAL): 1 (3×) and 2 and 0 (5×) and 4 (2×) and 6
  BSS scoring A (active), Time Bin 17 (80-85 TOTAL): 9 and 0 (5×) and 4 and 2 and 3 and 1 (3×)
  BSS scoring A (active), Time Bin 18 (85-90 TOTAL): 1 (3×) and 0 (5×) and 4 and 3 and 2 (2×)
  BSS scoring E (eating/drinking), Time Bin 13 (60-65 TOTAL): 8 (2×) and 6 (3×) and 10 (3×) and 0 and 9 (2×) and 5
  BSS scoring E (eating/drinking), Time Bin 14 (65-70 TOTAL): 10 (3×) and 8 (2×) and 9 and 1 and 7 (3×) and 5 and 6
  BSS scoring E (eating/drinking), Time Bin 15 (70-75 TOTAL): 10 (2×) and 8 (3×) and 7 (2×) and 6 and 3 (2×) and 4 (2×)
  BSS scoring E (eating/drinking), Time Bin 16 (75-80 TOTAL): 7 (3×) and 9 (2×) and 10 (2×) and 0 and 1 and 8 and 6 and 3
  BSS scoring E (eating/drinking), Time Bin 17 (80-85 TOTAL): 1 (2×) and 10 (3×) and 6 and 8 (2×) and 0 and 9 (3×)
  BSS scoring E (eating/drinking), Time Bin 18 (85-90 TOTAL): 9 (2×) and 6 and 7 (3×) and 1 (2×) and 0 (2×) and 8 and 10
  BSS scoring G (grooming), Time Bin 13 (60-65 TOTAL): 0 (7×) and 2 (2×) and 1 (3×)
  BSS scoring G (grooming), Time Bin 14 (65-70 TOTAL): 0 (8×) and 1 (4×)
  BSS scoring G (grooming), Time Bin 15 (70-75 TOTAL): 0 (9×) and 1 and 3 and 2
  BSS scoring G (grooming), Time Bin 16 (75-80 TOTAL): 2 and 1 and 0 (10×)
  BSS scoring G (grooming), Time Bin 17 (80-85 TOTAL): 0 (11×) and 1
  BSS scoring G (grooming), Time Bin 18 (85-90 TOTAL): 0 (8×) and 1 (4×)
  BSS scoring R (resting), Time Bin 13 (60-65 TOTAL): 0 (7×) and 1 (3×) and 10 and 2
  BSS scoring R (resting), Time Bin 14 (65-70 TOTAL): 0 (8×) and 8 and 2 and 1 (2×)
  BSS scoring R (resting), Time Bin 15 (70-75 TOTAL): 0 (5×) and 2 (2×) and 1 (3×) and 4 and 5
  BSS scoring R (resting), Time Bin 16 (75-80 TOTAL): 0 (6×) and 2 (2×) and 10 and 5 and 1 (2×)
  BSS scoring R (resting), Time Bin 17 (80-85 TOTAL): 0 (9×) and 2 and 5 and 10
  BSS scoring R (resting), Time Bin 18 (85-90 TOTAL): 0 (5×) and 1 (2×) and 2 and 7 (2×) and 8 and 10
[3]
  BSS scoring A (active), Time Bin 1 (0-5 TOTAL), AVG: 0.11
  BSS scoring A (active), Time Bin 2 (5-10 TOTAL), AVG: 0.02
  BSS scoring A (active), Time Bin 3 (10-15 TOTAL), AVG: 0.11
  BSS scoring A (active), Time Bin 4 (15-20 TOTAL), AVG: 0.13
  BSS scoring A (active), Time Bin 5 (20-25 TOTAL), AVG: 0.06
  BSS scoring A (active), Time Bin 6 (25-30 TOTAL), AVG: 0.11
  BSS scoring E (eating/drinking), Time Bin 1 (0-5 TOTAL), AVG: 0.86
  BSS scoring E (eating/drinking), Time Bin 2 (5-10 TOTAL), AVG: 0.93
  BSS scoring E (eating/drinking), Time Bin 3 (10-15 TOTAL), AVG: 0.87
  BSS scoring E (eating/drinking), Time Bin 4 (15-20 TOTAL), AVG: 0.83
  BSS scoring E (eating/drinking), Time Bin 5 (20-25 TOTAL), AVG: 0.88
  BSS scoring E (eating/drinking), Time Bin 6 (25-30 TOTAL), AVG: 0.84
  BSS scoring G (grooming), Time Bin 1 (0-5 TOTAL), AVG: 0.03
  BSS scoring G (grooming), Time Bin 2 (5-10 TOTAL), AVG: 0.03
  BSS scoring G (grooming), Time Bin 3 (10-15 TOTAL), AVG: 0.01
  BSS scoring G (grooming), Time Bin 4 (15-20 TOTAL), AVG: 0.02
  BSS scoring G (grooming), Time Bin 5 (20-25 TOTAL), AVG: 0.05
  BSS scoring G (grooming), Time Bin 6 (25-30 TOTAL), AVG: 0.01
  BSS scoring R (resting), Time Bin 1 (0-5 TOTAL), AVG: 0.00
  BSS scoring R (resting), Time Bin 2 (5-10 TOTAL), AVG: 0.02
  BSS scoring R (resting), Time Bin 3 (10-15 TOTAL), AVG: 0.02
  BSS scoring R (resting), Time Bin 4 (15-20 TOTAL), AVG: 0.02
  BSS scoring R (resting), Time Bin 5 (20-25 TOTAL), AVG: 0.02
  BSS scoring R (resting), Time Bin 6 (25-30 TOTAL), AVG: 0.04
[4]
  BSS scoring A (active), Time Bin 1 (0-5 TOTAL): 2 and 1 (8×) and 3 and 0 (2×)
  BSS scoring A (active), Time Bin 2 (5-10 TOTAL): 1 (2×) and 0 (10×)
  BSS scoring A (active), Time Bin 3 (10-15 TOTAL): 2 (4×) and 1 (2×) and 0 (5×) and 3
  BSS scoring A (active), Time Bin 4 (15-20 TOTAL): 0 (6×) and 3 (2×) and 2 and 6 and 1 (2×)
  BSS scoring A (active), Time Bin 5 (20-25 TOTAL): 1 (7×) and 0 (5×)
  BSS scoring A (active), Time Bin 6 (25-30 TOTAL): 2 (2×) and 1 (5×) and 0 (4×) and 4
  BSS scoring E (eating/drinking), Time Bin 1 (0-5 TOTAL): 8 (4×) and 9 (6×) and 7 and 10
  BSS scoring E (eating/drinking), Time Bin 2 (5-10 TOTAL): 8 (3×) and 10 (7×) and 9 (2×)
  BSS scoring E (eating/drinking), Time Bin 3 (10-15 TOTAL): 8 (4×) and 9 (2×) and 10 (4×) and 7 (2×)
  BSS scoring E (eating/drinking), Time Bin 4 (15-20 TOTAL): 9 (2×) and 7 (2×) and 10 (4×) and 8 (3×) and 4
  BSS scoring E (eating/drinking), Time Bin 5 (20-25 TOTAL): 9 (4×) and 10 (3×) and 8 (4×) and 7
  BSS scoring E (eating/drinking), Time Bin 6 (25-30 TOTAL): 8 (2×) and 9 (3×) and 10 (4×) and 5 and 7 and 6
  BSS scoring G (grooming), Time Bin 1 (0-5 TOTAL): 0 (9×) and 1 (2×) and 2
  BSS scoring G (grooming), Time Bin 2 (5-10 TOTAL): 1 (2×) and 0 (9×) and 2
  BSS scoring G (grooming), Time Bin 3 (10-15 TOTAL): 0 (11×) and 1
  BSS scoring G (grooming), Time Bin 4 (15-20 TOTAL): 0 (10×) and 1 (2×)
  BSS scoring G (grooming), Time Bin 5 (20-25 TOTAL): 0 (6×) and 1 (6×)
  BSS scoring G (grooming), Time Bin 6 (25-30 TOTAL): 0 (11×) and 1
  BSS scoring R (resting), Time Bin 1 (0-5 TOTAL): 0
  BSS scoring R (resting), Time Bin 2 (5-10 TOTAL): 0 (10×) and 1 (2×)
  BSS scoring R (resting), Time Bin 3 (10-15 TOTAL): 0 (11×) and 2
